The source made the active and inactive calls.
What was measured:
Mus musculus [1] = assay: Antiinflammatory activity in BALB/c mouse model of LPS-induced acute respiratory distress syndrome assessed as reduction in neutrophils in BALF at 20 to 60 mg/kg administered 6 hrs after LPS-stimulation; type: functional, organism-based; settings: dose 20-60 mg/kg
Mus musculus [2] = assay: Toxicity in BALB/c mouse model of LPS-induced acute respiratory distress syndrome assessed as reduction in body mass loss percentage at 30 mg/kg administered 6 hrs after LPS-stimulation; type: organism-based; settings: in vivo
Mus musculus [3] = assay: Antiinflammatory activity in BALB/c mouse model of LPS-induced acute respiratory distress syndrome assessed as reduction in pulmonary edema by measuring wet/dry weight ratio at 30 mg/kg administered 6 hrs after LPS-stimulation and measured after […]; type: functional, organism-based
Mus musculus [4] = assay: Antiinflammatory activity in BALB/c mouse model of LPS-induced acute respiratory distress syndrome assessed as reduction in leukocytes in peripheral blood at 30 mg/kg administered 6 hrs after LPS-stimulation and measured after 24 hrs by Neubauer counting chamber based analysis; type: functional, organism-based
Mus musculus [5] = assay: Antiinflammatory activity in BALB/c mouse model of LPS-induced acute respiratory distress syndrome assessed as reduction in neutrophils in peripheral blood at 30 mg/kg administered 6 hrs after LPS-stimulation and measured after 24 hrs by Diff-quick stain based analysis; type: functional, organism-based
Mus musculus [6] = assay: Antiinflammatory activity in BALB/c mouse model of LPS-induced acute respiratory distress syndrome assessed as reduction in monocytes in peripheral blood at 30 mg/kg administered 6 hrs after LPS-stimulation and measured after 24 hrs by Diff-quick stain based analysis; type: functional, organism-based
Mus musculus [7] = assay: Antiinflammatory activity in BALB/c mouse model of LPS-induced acute respiratory distress syndrome assessed as reduction in total inflammatory cells in BALF at 30 mg/kg administered 6 hrs after LPS-stimulation by Diff-quick stain based analysis; type: functional, organism-based
Mus musculus [8] = assay: Antiinflammatory activity in BALB/c mouse model of LPS-induced acute respiratory distress syndrome assessed as reduction in macrophages in BALF at 30 mg/kg administered 6 hrs after LPS-stimulation by Diff-quick stain based analysis; type: functional, organism-based
Mus musculus [9] = assay: Antiinflammatory activity in BALB/c mouse model of LPS-induced acute respiratory distress syndrome assessed as reduction in neutrophils in BALF at 30 mg/kg administered 6 hrs after LPS-stimulation by Diff-quick stain based analysis; type: functional, organism-based
Mus musculus [10] = assay: Antiinflammatory activity in BALB/c mouse model of LPS-induced acute respiratory distress syndrome assessed as reduction in IL-6 level in BALF at 30 mg/kg administered 6 hrs after LPS-stimulation by ELISA; type: functional, organism-based
Mus musculus [11] = assay: Antiinflammatory activity in BALB/c mouse model of LPS-induced acute respiratory distress syndrome assessed as reduction in IL-1beta level in BALF at 30 mg/kg administered 6 hrs after LPS-stimulation by ELISA; type: functional, organism-based
Mus musculus [12] = assay: Antiinflammatory activity in BALB/c mouse model of LPS-induced acute respiratory distress syndrome assessed as reduction in TNF-alpha level in BALF at 30 mg/kg administered 6 hrs after LPS-stimulation by ELISA; type: functional, organism-based
Mus musculus [13] = assay: Antiinflammatory activity in BALB/c mouse model of LPS-induced acute respiratory distress syndrome assessed as reduction in polymorphonuclear cells in alveolar septa at 30 mg/kg administered 6 hrs after LPS-stimulation by pointing-count technique; type: functional, organism-based
Mus musculus [14] = assay: (§1) Antiinflammatory activity in BALB/c mouse model of LPS-induced acute respiratory distress syndrome assessed as reduction in iNOS expression in alveolar septa at 30 mg/kg administered 6 hrs after LPS-stimulation and measured after 24 hrs by pointing-count technique based immunohistochemistry analysis; type: functional, organism-based
Mus musculus [15] = assay: as §1, with “9-iso-PGF2alpha” for “iNOS”; type: functional, organism-based
Mus musculus [16] = assay: Antiinflammatory activity in BALB/c mouse model of LPS-induced acute respiratory distress syndrome assessed as reduction in density of MMP-9 positive cells in lung parenchyma at 30 mg/kg administered 6 hrs after LPS-stimulation by pointing-count technique based immunohistochemistry analysis; type: functional, organism-based
Mus musculus [17] = assay: Antiinflammatory activity in BALB/c mouse model of LPS-induced acute respiratory distress syndrome assessed as reduction in density of TIMP-1 positive cells in lung parenchyma at 30 mg/kg administered 6 hrs after LPS-stimulation by pointing-count technique based immunohistochemistry analysis; type: functional, organism-based
Mus musculus [18] = assay: as §1, with “collagen deposition” for “iNOS expression”, “lung parenchyma” for “alveolar septa”; type: functional, organism-based
[19] = target: c-Jun N-terminal kinase (Mus musculus) (UniProt Q91Y86+Q9WTU6+Q61831); assay: Inhibition of LPS-induced JNK phosphorylation in BALB/c mouse at 30 mg/kg administered 6 hrs after LPS stimulation by western blot analysis; type: organism-based
Chain of c-Jun N-terminal kinase (Mus musculus) (Q61831 whole entry, looked up): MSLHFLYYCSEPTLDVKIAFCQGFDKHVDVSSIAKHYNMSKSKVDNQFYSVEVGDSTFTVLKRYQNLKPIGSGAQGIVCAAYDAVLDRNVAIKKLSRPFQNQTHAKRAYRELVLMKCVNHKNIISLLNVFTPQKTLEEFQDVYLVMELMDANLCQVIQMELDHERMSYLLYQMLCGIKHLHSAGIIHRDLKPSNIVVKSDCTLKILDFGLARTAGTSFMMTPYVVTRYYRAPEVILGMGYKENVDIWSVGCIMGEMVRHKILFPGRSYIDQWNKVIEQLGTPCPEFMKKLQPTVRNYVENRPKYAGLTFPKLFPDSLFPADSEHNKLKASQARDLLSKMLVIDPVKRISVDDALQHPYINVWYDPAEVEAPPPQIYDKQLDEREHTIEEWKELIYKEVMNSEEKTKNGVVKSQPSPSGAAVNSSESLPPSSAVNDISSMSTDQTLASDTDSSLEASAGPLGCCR
Chain of c-Jun N-terminal kinase (Mus musculus) (Q91Y86 whole entry, looked up): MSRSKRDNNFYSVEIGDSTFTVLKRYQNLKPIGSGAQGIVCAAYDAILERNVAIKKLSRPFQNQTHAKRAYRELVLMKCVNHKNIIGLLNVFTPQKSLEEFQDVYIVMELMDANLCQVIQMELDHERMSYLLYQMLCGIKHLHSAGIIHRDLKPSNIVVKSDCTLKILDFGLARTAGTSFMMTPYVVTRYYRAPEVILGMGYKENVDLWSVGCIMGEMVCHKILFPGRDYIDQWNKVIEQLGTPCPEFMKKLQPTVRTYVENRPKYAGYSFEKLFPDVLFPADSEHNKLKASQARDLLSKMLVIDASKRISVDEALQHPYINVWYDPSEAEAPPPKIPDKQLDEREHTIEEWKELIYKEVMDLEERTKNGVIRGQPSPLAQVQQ
Chain of c-Jun N-terminal kinase (Mus musculus) (Q9WTU6 whole entry, looked up): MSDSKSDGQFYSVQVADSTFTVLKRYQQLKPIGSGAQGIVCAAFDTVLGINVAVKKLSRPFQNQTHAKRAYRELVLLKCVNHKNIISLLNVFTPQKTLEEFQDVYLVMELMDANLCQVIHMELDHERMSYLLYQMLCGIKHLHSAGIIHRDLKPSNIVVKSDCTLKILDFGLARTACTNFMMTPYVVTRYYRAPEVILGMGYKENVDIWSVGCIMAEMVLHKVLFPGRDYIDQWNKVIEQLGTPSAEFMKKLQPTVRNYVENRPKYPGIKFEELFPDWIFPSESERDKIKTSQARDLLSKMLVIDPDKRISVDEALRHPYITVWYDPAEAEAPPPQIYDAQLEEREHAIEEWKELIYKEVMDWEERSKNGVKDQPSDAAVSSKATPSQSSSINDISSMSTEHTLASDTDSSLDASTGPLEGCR

Mus musculus [20] = assay: Antiinflammatory activity in BALB/c mouse model of LPS-induced acute respiratory distress syndrome assessed as improvement in lung mechanics by measuring respiratory system elastance at 30 mg/kg administered 6 hrs after LPS-stimulation and measured after 24 hrs by forced oscillation technique; type: functional, organism-based
Mus musculus [21] = assay: Antiinflammatory activity in BALB/c mouse model of LPS-induced acute respiratory distress syndrome assessed as improvement in lung mechanics by measuring tissue damping at 30 mg/kg administered 6 hrs after LPS-stimulation and measured after 24 hrs by forced oscillation technique; type: functional, organism-based
Mus musculus [22] = assay: Antiinflammatory activity in BALB/c mouse model of LPS-induced acute respiratory distress syndrome assessed as improvement in lung mechanics by measuring tissue elastance at 30 mg/kg administered 6 hrs after LPS-stimulation and measured after 24 hrs by forced oscillation technique; type: functional, organism-based
Mus musculus [23] = assay: Antiinflammatory activity in BALB/c mouse model of LPS-induced acute respiratory distress syndrome assessed as improvement in lung mechanics by measuring respiratory system resistance at 30 mg/kg administered 6 hrs after LPS-stimulation and measured after 24 hrs by forced oscillation technique; type: functional, organism-based
Mus musculus [24] = assay: Antiinflammatory activity in BALB/c mouse model of LPS-induced acute respiratory distress syndrome assessed as reduction in lymphocytes in peripheral blood at 30 mg/kg administered 6 hrs after LPS-stimulation and measured after 24 hrs by Diff-quick stain based analysis; type: functional, organism-based
Mus musculus [25] = assay: Antiinflammatory activity in BALB/c mouse model of LPS-induced acute respiratory distress syndrome assessed as reduction in inflammatory cells in alveolar septa at 30 mg/kg administered 6 hrs after LPS-stimulation; type: functional, organism-based

C=CCc1ccc(O)c(OC)c1 [EUGENOL]
inactive: Activity (Mus musculus [12]) | Activity (Mus musculus [23])
active: Activity (Mus musculus [1]) | Activity (Mus musculus [3]) | Activity (Mus musculus [4]) | Activity (Mus musculus [5]) | Activity (Mus musculus [6]) | Activity (Mus musculus [7]) | Activity (Mus musculus [8]) | Activity (Mus musculus [9]) | Activity (Mus musculus [10]) | Activity (Mus musculus [11]) | Activity (Mus musculus [13]) | Activity (Mus musculus [14]) | Activity (Mus musculus [15]) | Activity (Mus musculus [16]) | Activity (Mus musculus [17]) | Activity (Mus musculus [18]) | inhibition [19] | Activity (Mus musculus [20]) | Activity (Mus musculus [21]) | Activity (Mus musculus [22]) | Activity (Mus musculus [24]) | Activity (Mus musculus [25])
Non-Toxic: Activity (Mus musculus [2])

C=CCc1ccc(Oc2cc(CC=C)cc(OC)c2O)c(OC)c1
active: inhibition [19]

From ChEMBL document CHEMBL5053489, “Effects of Eugenol and Dehydrodieugenol B from Nectandra leucantha against Lipopolysaccharide (LPS)-Induced Experimental Acute Lung Inflammation” (J Nat Prod, 2021)
